# Test results as given in paper PMC6254985 (Journal of Experimental Pharmacology, 2018).
# Where a name gives a salt, the structure may show the parent alone. Read-outs that look alike come from different tables or passages of the source.
# Columns and labels:
# human D2L receptor = human D2L receptor (Homo sapiens, UniProt P14416); test: [35S]GTPγS binding assay, antagonist activity, D2L; type: biochemical
# human D2S receptor = human D2S receptor (Homo sapiens, UniProt P14416); test: [35S]GTPγS binding assay, antagonist activity, D2S; type: biochemical
# human D2S receptor, sequence (P14416 1-414 isoform P14416-2): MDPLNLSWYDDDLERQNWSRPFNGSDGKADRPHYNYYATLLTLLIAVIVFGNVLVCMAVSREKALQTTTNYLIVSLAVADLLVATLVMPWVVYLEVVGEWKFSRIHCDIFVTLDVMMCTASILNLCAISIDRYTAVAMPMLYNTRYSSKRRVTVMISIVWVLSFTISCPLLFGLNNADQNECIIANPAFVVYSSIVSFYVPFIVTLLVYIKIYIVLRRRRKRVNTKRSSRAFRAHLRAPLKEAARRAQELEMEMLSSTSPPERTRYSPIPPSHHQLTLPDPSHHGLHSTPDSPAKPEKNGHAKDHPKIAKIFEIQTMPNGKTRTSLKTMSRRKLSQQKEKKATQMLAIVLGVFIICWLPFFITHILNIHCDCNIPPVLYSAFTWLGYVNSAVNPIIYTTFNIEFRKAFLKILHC
# [1] = cited from earlier work
# [2] = tested on: alpha-adrenergic receptors; test: Inhibition of alpha-adrenergic receptors
# [3] = tested on: 5-HT2A, 5-HT2B, 5-HT2C, 5-HT6, 5-HT7, D1, D2S, D2L, D3, or D5; test: Agonist effect in the presence of dopamine or norepinephrine; type: cell-based
# human D2L receptor, sequence (P14416 whole entry): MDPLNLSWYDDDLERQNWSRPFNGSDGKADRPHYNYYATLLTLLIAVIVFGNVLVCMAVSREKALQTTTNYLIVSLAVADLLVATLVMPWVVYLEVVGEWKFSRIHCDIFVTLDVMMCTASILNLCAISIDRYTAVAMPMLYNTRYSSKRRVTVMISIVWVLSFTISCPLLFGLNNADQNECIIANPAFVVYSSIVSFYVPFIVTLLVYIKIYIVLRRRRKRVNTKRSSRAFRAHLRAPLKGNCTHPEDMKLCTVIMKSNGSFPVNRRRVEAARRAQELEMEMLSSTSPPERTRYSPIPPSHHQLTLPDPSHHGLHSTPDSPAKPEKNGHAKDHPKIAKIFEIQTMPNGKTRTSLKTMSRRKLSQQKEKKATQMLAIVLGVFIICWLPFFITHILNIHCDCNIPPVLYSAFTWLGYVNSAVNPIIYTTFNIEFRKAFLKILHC
SMILES,"Antagonist potency of R(−) relative to S(+) enantiomer, D2L (human D2L receptor; based on the IC50)","IC50 (human D2L receptor; read-out: IC50 of enantiomers, D2L, [35S]GTPγS binding assay)","Antagonist potency of R(−) relative to S(+) enantiomer, D2S (human D2S receptor; based on the IC50)","IC50 (human D2S receptor; read-out: IC50 of enantiomers, D2S, [35S]GTPγS binding assay)",Parkinsonism or extrapyramidal symptoms [1],Propensity for weight gain [1],IC50 (human D2S receptor),Inhibition of the alpha-adrenergic receptors [2],Agonist effect in the presence of dopamine or norepinephrine [3]
"CCc1c(C)[nH]c2c1C(=O)[C@@H](CN1CCOCC1)CC2 (single isomer, unassigned) [R(−) enantiomer]",~300 fold,21 nM,~ 100 fold,48 nM,,,,,
"CCc1c(C)[nH]c2c1C(=O)C(CN1CCOCC1)CC2 (stereo not drawn) [SPN-810M, Molindone Hydrochloride]",,,,,little to no parkinsonism or extrapyramidal symptoms,low propensity for weight gain,84.4 nM,no significant inhibition,No agonist effect
